The values that follow are results of earlier work, collected in patent EP2739646B1, “COMPREHENSIVE BUFFER SYSTEM FOR RENATURING HUMAN PROINSULIN OR PROINSULIN DERIVATIVES” (Hermann, Stefan, priority 2011, dated 2012).

Where two headings read alike, the source gives them in different places.

Assay in data set [1]: not given
The source holds these as a separate data set.

As to `O=C(O)CCCC(=O)O` [glutaric acid], under “temperature not given”, the water solubility is recorded as 64.0 g/100ml.
Regarding `N[C@@H](CS)C(=O)O` [cysteine], the pKa is listed as 2.05 in data set [1] (first value listed), 10.25 in data set [1] (second value listed) and 8.00 in data set [1] (third value listed). For the same molecule, for the setting “at 25°C”, the water solubility is on record as above 50 g/100g water.
In the case of `C[C@H](N)C(=O)O` [alanine], the water solubility (at 25°C) was 16.5 g/100g water.
Turning to `N=C(N)NCCC[C@H](N)C(=O)O` [arginine], the pKa in data set [1] (first value listed) is reported as 2.01; in data set [1] (second value listed) it was 9.4.
`O=C(O)[C@@H]1CCCN1` [proline]: the pKa in data set [1] (first value listed) is listed as 2.0; in data set [1] (second value listed), 10.6.
With `CCCCC(=O)O` [valeric acid], the water solubility (temperature not given) is reported as 4.97 g/100ml.

By pKa is commonly meant the pH at which an ionisable group is half protonated.
